Here are results for one compound from patent US20250099393A1, “IONIZABLE LIPIDS, LIPID NANOPARTICLES, AND USES THEREOF” (Verily Life Sciences LLC, priority 2022, published 2025).

This data set is described as follows: pKa of the ionizable lipid (ethanolamine headgroup). The note with it: uncharged at physiological pH. It is filed as physicochemical.

With `CCCCC/C=C\C/C=C\CCCCCCCCOC(=O)CCCCCCCN(CCO)CCCCCCCC(=O)OC(CCCCCCCC)CCCCCCCC` [PCTA-1], the pKa (in general, the pH at which an ionisable group is half protonated) was in the range of 6.2 to 6.8.
